Experimental findings from article PMC7821181, “MS Binding Assays for Glycine Transporter 2 (GlyT2) Employing Org25543 as Reporter Ligand” (Chemmedchem, 2020) are described below.

In the test the target is T1, hGlyT2 (Homo sapiens, UniProt Q9Y345).
T1 construct: host or cells: HEK293 cells stably expressing hGlyT2; crude membrane fractions
T1 sequence (Q9Y345 1-797): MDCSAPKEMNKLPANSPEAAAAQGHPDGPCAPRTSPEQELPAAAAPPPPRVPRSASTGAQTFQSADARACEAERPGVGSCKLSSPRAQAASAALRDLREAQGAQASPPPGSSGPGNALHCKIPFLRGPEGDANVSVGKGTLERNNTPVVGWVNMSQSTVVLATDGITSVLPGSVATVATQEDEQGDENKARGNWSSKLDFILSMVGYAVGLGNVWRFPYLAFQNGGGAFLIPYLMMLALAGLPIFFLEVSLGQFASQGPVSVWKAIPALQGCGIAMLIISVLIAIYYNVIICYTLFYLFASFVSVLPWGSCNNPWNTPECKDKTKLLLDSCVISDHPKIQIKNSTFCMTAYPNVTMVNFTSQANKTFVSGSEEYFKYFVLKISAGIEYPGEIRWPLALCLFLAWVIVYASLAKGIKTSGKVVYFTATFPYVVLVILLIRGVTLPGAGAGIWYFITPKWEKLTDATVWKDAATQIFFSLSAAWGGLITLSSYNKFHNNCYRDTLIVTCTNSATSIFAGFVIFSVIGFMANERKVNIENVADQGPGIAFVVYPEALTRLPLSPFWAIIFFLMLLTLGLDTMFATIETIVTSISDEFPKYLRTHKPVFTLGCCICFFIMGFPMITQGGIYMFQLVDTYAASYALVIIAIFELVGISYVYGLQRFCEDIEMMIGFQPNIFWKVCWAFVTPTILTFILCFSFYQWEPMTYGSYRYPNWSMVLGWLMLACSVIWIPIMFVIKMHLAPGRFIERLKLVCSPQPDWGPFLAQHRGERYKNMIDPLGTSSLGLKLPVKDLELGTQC
In words: GlyT2 MS Binding Assays: saturation experiments with Org25543. Conditions: mean±SEM, n=3. As for the experimental part:
For the further characterization of the binding of Org25543 to GlyT2 saturation experiments were performed. To determine total binding of Org25543 GlyT2 membrane fractions were incubated with the reporter ligand in eight different concentrations (0.4–150 nM) and the samples analyzed after the general workup by LC‐ESI‐MS/MS as described above. Nonspecific binding was obtained from experiments that were completely analogous to the former except that protein subjected to a prior heat‐shock was used. Quantification of Org25543 in total binding samples could be realized down to the lowest nominal concentration level (0.4 nM). For nonspecific binding samples the quantification was possible down to 2 nM nominal marker concentration. For nominal marker concentrations lower than 2 nM the concentrations of Org25543 lay below the LLOQ. As it is generally acknowledged that nonspecific binding is related to nominal marker concentration in a linear fashion, ^[46] data points below this concentration were calculated by extrapolation after linear regression analysis of the data points for nonspecific binding at nominal marker concentrations from 2 to 150 nM.
For preparation of GlyT2 membrane preparations HEK293 cells, stably expressing the hGlyT2 with a confluence ≥90 %, were used (kindly provided by AbbVie (Wiesbaden, Germany)). […]

With `COc1cc(C(=O)NCC2(N(C)C)CCCC2)cc(OC)c1OCc1ccccc1` [Org25543, N‐[[1‐(dimethylamino)cyclopentyl]methyl]‐3,5‐dimethoxy‐4‐(phenylmethoxy)benzamide], the “maximum density of binding sites (B max)” value (HEK293 hGlyT2 membrane preparation) is on record as 26.15±1.03 pmol (mg protein)^−1. Further, the Kd (Org25543 0.4–150 nM, read-out: K d (saturation experiments)) came out at 7.45 nM.
